Results: patent publication US20240116985A1, “STAPLED PEPTIDES AND METHODS THEREOF” (priority 2020, published 2024)
Read-outs that look alike come from different tables or passages of the source.

How the values were obtained:
[1] = target: T1, beta-catenin/TCF4 engagement (Homo sapiens, UniProt P35222); assay: Nano-BRET target engagement assay (B-cat-Halo & TCF4-Luc in HEK293 cells); format: cell-based; settings: read-out: NanoBRET Abs IC50
T1 construct: expressed in transfected cells; host or cells: HEK293
T1 sequence (P35222 1-781): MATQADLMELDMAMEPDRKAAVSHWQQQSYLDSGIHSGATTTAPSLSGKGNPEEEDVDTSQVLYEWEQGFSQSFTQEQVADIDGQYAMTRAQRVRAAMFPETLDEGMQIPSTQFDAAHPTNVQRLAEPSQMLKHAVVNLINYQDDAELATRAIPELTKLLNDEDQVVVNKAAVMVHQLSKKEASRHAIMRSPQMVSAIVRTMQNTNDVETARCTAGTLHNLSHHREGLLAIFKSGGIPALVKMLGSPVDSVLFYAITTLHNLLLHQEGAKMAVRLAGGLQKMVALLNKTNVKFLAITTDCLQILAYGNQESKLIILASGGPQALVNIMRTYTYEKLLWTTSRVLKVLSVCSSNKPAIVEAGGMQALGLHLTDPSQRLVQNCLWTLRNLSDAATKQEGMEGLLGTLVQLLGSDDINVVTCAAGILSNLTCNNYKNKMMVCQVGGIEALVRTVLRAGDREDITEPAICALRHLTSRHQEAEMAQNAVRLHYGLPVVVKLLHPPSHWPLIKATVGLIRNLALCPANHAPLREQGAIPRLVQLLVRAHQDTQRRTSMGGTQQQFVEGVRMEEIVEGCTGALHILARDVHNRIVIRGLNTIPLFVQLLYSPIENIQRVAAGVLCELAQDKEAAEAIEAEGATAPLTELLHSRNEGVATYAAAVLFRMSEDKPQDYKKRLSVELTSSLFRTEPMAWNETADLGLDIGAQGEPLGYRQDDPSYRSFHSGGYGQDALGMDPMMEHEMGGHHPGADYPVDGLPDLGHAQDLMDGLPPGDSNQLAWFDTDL

[2] = target: T2, full-length beta-Catenin (Uniprot ID P35222) (Homo sapiens, UniProt P35222); assay: Fluorescence polarization IC50 (beta-catenin / 5FAM-TCF4 10-53 competition); format: binding; settings: fluorescence polarization; read-out: beta-Catenin FP IC50
T2 construct: 10 nM full-length beta-Catenin (Uniprot ID P35222)
T2 sequence (P35222 1-781): T1 sequence (P35222 1-781)

SMILES	IC50 [1] [µM]	IC50 [2] [µM]	IC50 ([1]; absolute IC50) [µM]
CC(=O)N1CCC[C@]12CC=CCCCC1(CCCC=CCCCOC(=O)N3CC[C@@](C(=O)N[C@@H](Cc4ccccc4C(N)=O)C(=O)N[C@@H](Cc4csc5ccccc45)C(=O)N[C@@H](CCO)C(N)=O)(C3)NC(=O)[C@H](CC(N)=O)NC(=O)[C@H](Cc3ccccc3)NC(=O)[C@H](C)NC(=O)[C@H](CCCCNC(C)C)NC(=O)[C@H](CCC(N)=O)NC(=O)[C@H](CC(=O)O)NC1=O)NC(=O)[C@H](CC1CCCCC1)NC(=O)[C@H](CC(N)=O)NC2=O (stereo partly drawn) [I-2168, Ac-PL3-Asn-Cha-B5-Asp-Gln-iPrLys-Ala-Phe-Asn-PyrS2-2cbmf-BztA-Hse-NH2]	> 20	0.212	–
CCS(=O)(=O)N1CCN(C(=O)CC[C@@H]2NC(=O)[C@H](Cc3cccc(C(=O)O)c3)NC(=O)[C@H](CC(=O)O)NC(=O)C3(CCCC=CCCCOC(=O)N4CC[C@@](C(=O)N[C@@H](Cc5ccccc5C(F)(F)F)C(=O)N[C@@H](Cc5csc6ccccc56)C(=O)N[C@@H](C)C(N)=O)(C4)NC(=O)[C@H](CC(C)C)NC(=O)[C@H](Cc4ccccc4)NC(=O)[C@H](C)NC2=O)CCCC=CC[C@]2(CCCN2C(C)=O)C(=O)N[C@@H](CC(=O)O)C(=O)N[C@@H](CC(C)(C)C)C(=O)N3)CC1 (stereo partly drawn) [I-2321, Ac-PL3-Asp-Npg-B5-Asp-3COOHF-[EtSO2Ppz]GlnR-Ala-Phe-Leu-PyrS2-2F3MeF-BztA-Ala-NH2]	–	0.005	1.7
CC(=O)N1CCC[C@]12CC=CCCCC1(CCCC=CCCCOC(=O)N3CC[C@@](C(=O)N[C@@H](Cc4ccsc4)C(=O)N[C@@H](Cc4csc5ccccc45)C(=O)N[C@@H](CC(N)=O)C(=O)N[C@@H](C)C(=O)N[C@@H](CC(C)C)C(=O)N[C@@H](C)C(=O)N[C@@H](CC(C)C)C(=O)N[C@@H](C)C(N)=O)(C3)NC(=O)[C@H](CC(C)C)NC(=O)[C@H](Cc3ccccc3)NC(=O)[C@H](C)NC(=O)[C@H](C)NC(=O)[C@H](Cc3cccc(C(=O)O)c3)NC(=O)[C@H](CC(=O)O)NC1=O)NC(=O)[C@H](CC(C)(C)C)NC(=O)[C@H](CC(=O)O)NC2=O (stereo partly drawn) [I-2281, Ac-PL3-Asp-Npg-B5-Asp-3COOHF-Ala-Ala-Phe-Leu-PyrS2-3Thi-BztA-Asn-Ala-Leu-Ala-Leu-Ala-NH2]	–	0.138	4.3
CC(=O)N1CCC[C@]12CC=CCCCC1(CCCC=CCCCOC(=O)N3CC[C@@](C(=O)N[C@@H](Cc4ccccc4Cl)C(=O)N[C@@H](Cc4csc5ccccc45)C(=O)N[C@@H](CO)C(N)=O)(C3)NC(=O)[C@H](CC(C)C)NC(=O)[C@H](Cc3ccccc3)NC(=O)[C@H](C)NC(=O)[C@H](CO)NC(=O)[C@H](Cc3cccc(C(=O)O)c3)NC(=O)[C@H](CC(=O)O)NC1=O)NC(=O)[C@H](CC(C)(C)C)NC(=O)[C@H](CC(=O)O)NC2=O (stereo partly drawn) [I-1902, Ac-PL3-Asp-Npg-B5-Asp-3COOHF-Ser-Ala-Phe-Leu-PyrS2-2C1F-BztA-Ser-NH2]	7.7	0.028	–
CC(=O)N1CCC[C@]12CC=CCCCC1(CCCC=CCCCOC(=O)N3CC[C@@](C(=O)N[C@@H](Cc4ccsc4)C(=O)N[C@@H](Cc4csc5ccccc45)C(=O)N[C@@H](C)C(N)=O)(C3)NC(=O)[C@H](CC(C)C)NC(=O)[C@H](Cc3cccc(F)c3)NC(=O)[C@H](C)NC(=O)[C@H](C)NC(=O)[C@H](Cc3cccc(C(=O)O)c3)NC(=O)[C@H](CC(=O)O)NC1=O)NC(=O)[C@H](CC(C)(C)C)NC(=O)[C@H](CC(=O)O)NC2=O (stereo partly drawn) [I-2260, Ac-PL3-Asp-Npg-B5-Asp-3COOHF-Ala-Ala-3FF-Leu-PyrS2-3Thi-BztA-Ala-NH2]	–	0.021	3.1
CC(=O)N1CCC[C@]12CC=CCCCC1(CCCC=CCCCOC(=O)N3CC[C@@](C(=O)N[C@@H](Cc4ccsc4)C(=O)N[C@@H](Cc4csc5ccccc45)C(=O)N[C@H](CO)[C@@H](C)O)(C3)NC(=O)[C@H](CC(C)C)NC(=O)[C@H](Cc3ccccc3)NC(=O)[C@H](C)NC(=O)[C@H](C)NC(=O)[C@H](Cc3ccccc3C(=O)O)NC(=O)[C@H](CC(=O)O)NC1=O)NC(=O)[C@H](CC(C)(C)C)NC(=O)[C@H](CC(=O)O)NC2=O (single isomer, unassigned) [I-1670, Ac-PL3-Asp-Npg-B5-Asp-2COOHF-Ala-Ala-Phe-Leu-PyrS2-3Thi-BztA-Thro1]	–	0.011	7.9
CC(=O)N1CCC[C@]12CC=CCCCC1(CCCC=CCCCOC(=O)N3CC[C@@](C(=O)N[C@@H](Cc4ccccc4)C(=O)N[C@@H](Cc4csc5ccccc45)C(=O)N[C@@H](CC(=O)N4CCOCC4)C(N)=O)(C3)NC(=O)[C@H](CC(C)C)NC(=O)[C@H](Cc3ccccc3)NC(=O)[C@H](C)NC(=O)[C@H](CCC(=O)N(C)C)NC(=O)[C@H](CCC(N)=O)NC(=O)[C@H](CC(=O)O)NC1=O)NC(=O)[C@H](CC1CCCCC1)NC(=O)[C@H](CC(N)=O)NC2=O (stereo partly drawn) [I-2501, Ac-PL3-Asn-Cha-B5-Asp-Gln-Me2Gln-Ala-Phe-Leu-PyrS2-Phe-BztA-MorphAsn-NH2]	–	0.154	> 20
CC(=O)N1CCC[C@]12CC=CCCCC1(CCCC=CCCCOC(=O)N3CC[C@@](C(=O)N[C@@H](Cc4ccsc4)C(=O)N[C@@H](Cc4csc5ccccc45)C(=O)N[C@@H](CC(N)=O)C(N)=O)(C3)NC(=O)[C@H](CC(C)C)NC(=O)[C@H](Cc3ccccc3)NC(=O)[C@H](C)NC(=O)[C@H](C)NC(=O)[C@H](CN(CC(=O)O)CC(F)(F)F)NC(=O)[C@H](CC(=O)O)NC1=O)NC(=O)[C@H](CC(C)(C)C)NC(=O)[C@H](CC(=O)O)NC2=O (stereo partly drawn) [I-1705, Ac-PL3-Asp-Npg-B5-Asp-TfeGA-Ala-Ala-Phe-Leu-PyrS2-3Thi-BztA-Asn-NH2]	–	0.009	2.9
CCCC[C@@H]1NC(=O)[C@H](CC(=O)O)NC(=O)[C@]2(CC=CCCCC3(CCCC=CCCCCCC[C@@](C)(C(=O)N[C@@H](Cc4ccccc4)C(=O)N[C@@H](Cc4csc5ccccc45)C(=O)N[C@@H](CCC(N)=O)C(N)=O)NC(=O)[C@H](CCC(N)=O)NC(=O)[C@H](Cc4ccccc4)NC(=O)[C@H](C)NC(=O)[C@H](C)NC(=O)[C@H](CCC(=O)O)NC(=O)[C@H](CC(=O)O)NC3=O)NC1=O)CCCN2C(C)=O (stereo partly drawn) [I-1522, Ac-PL3-Asp-nLeu-B5-Asp-Glu-Ala-Ala-Phe-Gln-S8-Phe-BztA-Gln-NH2]	–	0.006	5.8
CC(=O)N1CC2CC1C(=O)N[C@@H](CC(=O)O)C(=O)N[C@@H](CC(C)(C)C)C(=O)NC1(CCCCCCCCOC(=O)N3CC[C@@](C(=O)N[C@@H](Cc4ccsc4)C(=O)N[C@@H](Cc4csc5ccccc45)C(=O)N[C@@H](CCC(N)=O)C(N)=O)(C3)NC(=O)[C@H](CC(C)C)NC(=O)[C@H](Cc3ccccc3)NC(=O)[C@H](C)NC(=O)[C@H](C)NC(=O)[C@H](CN(CC(=O)O)CC(F)(F)F)NC(=O)[C@H](CC(=O)O)NC1=O)CCCCCCOc1cccc(c1)C(=O)O2 (stereo partly drawn) [I-2328, Ac-HypBzEs3OAllyl-Asp-Npg-B5-Asp-TfeGA-Ala-Ala-Phe-Leu-PyrS2-3Thi-BztA-Gln-NH2]	–	0.17	> 20
CCN(CC)C(=O)[C@H](CCC(N)=O)NC(=O)[C@H](Cc1csc2ccccc12)NC(=O)[C@H](Cc1ccsc1)NC(=O)[C@]12CCN(C1)C(=O)OCCCC=CCCCC1(CCCC=CC[C@]3(CCCN3C(C)=O)C(=O)N[C@@H](CC(=O)O)C(=O)N[C@@H](CC(C)(C)C)C(=O)N1)C(=O)N[C@@H](CC(=O)O)C(=O)N[C@@H](CN(CC(=O)O)CC(F)(F)F)C(=O)N[C@@H](C)C(=O)N[C@@H](C)C(=O)N[C@@H](Cc1ccccc1)C(=O)N[C@@H](CC(N)=O)C(=O)N2 (stereo partly drawn) [I-1641, Ac-PL3-Asp-Npg-B5-Asp-TfeGA-Ala-Ala-Phe-Asn-PyrS2-3Thi-BztA-Gln-NEt2]	–	–	14.7
CC(=O)N1CCC[C@]12CC=CCCCC1(CCCC=CCCCCCC[C@@](C)(C(=O)N[C@@H](Cc3ccccc3)C(=O)N[C@@H](Cc3csc4ccccc34)C(=O)N[C@@H](CCC(N)=O)C(N)=O)NC(=O)[C@H](CCO)NC(=O)[C@H](Cc3ccccc3)NC(=O)[C@H](C)NC(=O)[C@H](C)NC(=O)[C@H](CCC(=O)O)NC(=O)[C@H](CC(=O)O)NC1=O)NC(=O)[C@H](CO)NC(=O)[C@H](CC(=O)O)NC2=O (stereo partly drawn) [I-1529, Ac-PL3-Asp-Ser-B5-Asp-Glu-Ala-Ala-Phe-Hse-S8-Phe-BztA-Gln-NH2]	–	–	> 20
CC(=O)N1CCC[C@]12CC=CCCCC1(CCCC=CCCCOC(=O)N3CC[C@@](C(=O)N[C@@H](Cc4ccsc4)C(=O)N[C@@H](Cc4csc5ccccc45)C(=O)N[C@@H](CCC(N)=O)C(N)=O)(C3)NC(=O)[C@H](CC(N)=O)NC(=O)[C@H](Cc3ccccc3)NC(=O)[C@H](C)NC(=O)C3(CC3)NC(=O)[C@H]([C@@H](C)O)NC(=O)[C@H](CC(N)=O)NC1=O)NC(=O)[C@H](CC(C)(C)C)NC(=O)[C@H](CC(=O)O)NC2=O (stereo partly drawn) [I-2492, Ac-PL3-Asp-Npg-B5-Asn-Thr-Cpg-Ala-Phe-Asn-PyrS2-3Thi-BztA-Gln-NH2]	–	–	> 20
